# Target: T1, HM74A (Homo sapiens, UniProt Q8TDS4)
# T1 construct: expressed in transfected cells; host or cells: HEK-293, stably transfected (pcDNA3.1 vectors), co-expressing chimeric G protein Gqi9
# Experiment: Secondary fluorescent calcium indicator assay (FLIPR)
# Format: cell-based
# Conditions: stable transfected HEK-293 cells expressing HM74A and chimeric G protein Gqi9
# Protocol: Secondary Fluorescent Calcium Indicator Assay (FLIPR)
# HEK-293 cells were grown in tissue culture medium (DMEM/Nut mix F12 Medium with Glutamax I (Invitrogen), containing 10% FBS) at 37° C. in a 5% CO2 atmosphere. These cells were cultured in 6-well dishes at 3×10^5 cells/well and double transfected with DNA vectors (pcDNA3.1, Invitrogen) expressing either HM74A or HM74 and the chimeric G protein Gqi9. Two days after transfection the wells were combined and plated in 150 cm^2 flasks, in the presence of 50 μg/ml Hygromycin (Invitrogen) and 500 μg/ml Geneticin (Gibco). Fourteen days after plating, colonies were picked, expanded and analyzed for expression using a functional assay (FLIPR). Stable transfected HEK-293 cells expressing either HM74A or HM74 and the chimeric G protein Gqi9 were plated at 50,000 cells/well in black 96-well plates with clear bottom (Costar) and cultured to confluency overnight in growth media (DMEM/Nut mix F12 Medium with Glutamax I (Invitrogen), containing 10% FBS) at 37° C. in a humidified cell incubator containing 5% CO2. Growth media was aspirated and replaced with 100 μl of 1× FLIPR Calcium Assay Dye (Molecular Devices) in Hank's balanced salt solution (HBSS) containing 10 mM HEPES, and […] probenecid (Sigma), for 1 hour at 37° C. Cell plates were transferred to a FLIPR unit (Molecular Devices), and 50 μl of 3× compound dilution were added. Fluorescence emissions were measured and the effects of compounds were expressed as % stimulation of maximal nicotinic acid response (100 μM). Sigmoidal curves were fitted using the XLfit3 program (ID Business Solutions Ltd. UK) and EC50 values determined.
# T1 sequence (Q8TDS4 whole entry): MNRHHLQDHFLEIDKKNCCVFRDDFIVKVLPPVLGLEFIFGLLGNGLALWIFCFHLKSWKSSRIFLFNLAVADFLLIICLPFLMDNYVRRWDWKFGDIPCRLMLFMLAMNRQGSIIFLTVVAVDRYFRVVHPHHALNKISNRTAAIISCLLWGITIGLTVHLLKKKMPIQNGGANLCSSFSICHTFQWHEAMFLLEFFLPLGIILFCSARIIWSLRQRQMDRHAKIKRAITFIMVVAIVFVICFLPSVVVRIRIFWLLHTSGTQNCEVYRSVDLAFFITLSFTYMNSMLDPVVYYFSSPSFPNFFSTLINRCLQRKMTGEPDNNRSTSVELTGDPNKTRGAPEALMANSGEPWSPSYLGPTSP
row,EC50 [nM],SMILES
1,5710,"O=c1[nH]c(COc2ccccc2)nc2ncccc12 [Example 2, 2-Phenoxymethyl-3H-pyrido[2,3-d]pyrimidin-4-one]"
2,2710,"COc1ccc(CCCOc2nc3ncccc3c(=O)[nH]2)cc1 [Example 28, 2-[3-(4-Methoxy-phenyl)-propoxy]-3H-pyrido[2,3-d]pyrimidin-4-one]"
3,426,"Cc1ccccc1OCCCOc1nc2ncccc2c(=O)[nH]1 [Example 58, 2-(3-o-Tolyloxy-propoxy)-3H-pyrido[2,3-d]pyrimidin-4-one]"

# From patent US7572801B2, “Pyridopyrimidinone derivatives which are HM74A agonists” (Hoffmann-La Roche Inc., priority 2007, dated 2009)
